PMC5433425 (PeerJ, 2017)
In brackets after ≈: the same amount, converted by molar mass. Several values for one entry are separate records, joined by “and”; a condition that tells them apart may be missing. Equal values may be shown once. Read-outs that look alike come from different tables or passages of the source.

Test system: E. coli AG100
Experiment: Time-kill kinetics (CFU)
Type: cell-based, Escherichia coli
Protocol: A drug-free control was included in the assay to monitor the normal growth of the strain. Cultures were sampled for CFU determination after 0, 1, 2, 3, 4, 5, 6, and 24 h of incubation at 37 °C with shaking. For CFU determination, 10-fold serial dilutions were made in a saline solution and 20 µl of each solution was placed onto the surface of a Mueller–Hinton agar plate. The colonies were counted after the incubation of the plates at 37 °C for 24 h. The limit of detection of the assay was 17 CFU/ml. Each assay was repeated at least twice.

SMILES: CCCOc1ccc(-c2cc(OCCN3CCNCC3)c3ccccc3n2)cc1 [PQQ4R, 4-(2-(piperazin-1-yl)ethoxy)-2-(4-propoxyphenyl) quinolone]
- time of exposure to reduce viability to zero: 3 h and 4 h
- MBC (minimal bactericidal concentration) (AG100): 640 µM (≈ 251 µg/mL)
- viability (AG100, 80 μM (1/8 MIC)): 100%
- viability (AG100, 160 μM (1/4 MIC)): 98%
- viability (AG100, 320 μM (1/2 MIC)): 92%
- viability (AG100, 640 μM (MIC)): 0%
- CFU count Log10 (AG100, 1/2 MIC, T1 (1 h)): 3.836
- CFU count Mean (AG100, 1/2 MIC, T1 (1 h)): 6.8E+03
- CFU count Log10 (AG100, 1/2 MIC, T2 (2 h)): 3.5272
- CFU count Mean (AG100, 1/2 MIC, T2 (2 h)): 3.4E+03
- CFU count Log10 (AG100, 1/2 MIC, T3 (3 h)): 3.503
- CFU count Mean (AG100, 1/2 MIC, T3 (3 h)): 3.2E+03
- CFU count Log10 (AG100, 1/2 MIC, T4 (4 h)): 3.423
- CFU count Mean (AG100, 1/2 MIC, T4 (4 h)): 2.6E+03
- CFU count Log10 (AG100, 1/2 MIC, T5 (5 h)): 2.79
- CFU count Mean (AG100, 1/2 MIC, T5 (5 h)): 6.2E+02
- CFU count Log10 (AG100, 1/2 MIC, T6 (6 h)): 2.222
- CFU count Mean (AG100, 1/2 MIC, T6 (6 h)): 1.7E+02
- CFU count Mean (AG100, 1/2 MIC, T24 (24 h)): 2.0E+13
- CFU count - Strain dilution (AG100, 2xMIC, T1 (1 h)): 0
- CFU count - absolute values (AG100, 2xMIC, T1 (1 h)): 0
- CFU count Log10 (AG100, 2xMIC, T1 (1 h)): 0
- CFU count Mean (AG100, 2xMIC, T1 (1 h)): 0.0E+00
- CFU count - Strain dilution (AG100, 2xMIC, T2 (2 h)): 0
- CFU count - absolute values (AG100, 2xMIC, T2 (2 h)): 0
- CFU count Log10 (AG100, 2xMIC, T2 (2 h)): 0
- CFU count Mean (AG100, 2xMIC, T2 (2 h)): 0.0E+00
- CFU count - Strain dilution (AG100, 2xMIC, T3 (3 h)): 0
- CFU count - absolute values (AG100, 2xMIC, T3 (3 h)): 0
- CFU count Log10 (AG100, 2xMIC, T3 (3 h)): 0
- CFU count Mean (AG100, 2xMIC, T3 (3 h)): 0.0E+00
- CFU count - Strain dilution (AG100, 2xMIC, T4 (4 h)): 0
- CFU count - absolute values (AG100, 2xMIC, T4 (4 h)): 0
- CFU count Log10 (AG100, 2xMIC, T4 (4 h)): 0
- CFU count Mean (AG100, 2xMIC, T4 (4 h)): 0.0E+00
- CFU count - Strain dilution (AG100, 2xMIC, T5 (5 h)): 0
- CFU count - absolute values (AG100, 2xMIC, T5 (5 h)): 0
- CFU count Log10 (AG100, 2xMIC, T5 (5 h)): 0
- CFU count Mean (AG100, 2xMIC, T5 (5 h)): 0.0E+00
- CFU count - Strain dilution (AG100, 2xMIC, T6 (6 h)): 0
- CFU count - absolute values (AG100, 2xMIC, T6 (6 h)): 0
- CFU count Log10 (AG100, 2xMIC, T6 (6 h)): 0
- CFU count Mean (AG100, 2xMIC, T6 (6 h)): 0.0E+00
- CFU count - Strain dilution (AG100, 2xMIC, T24 (24 h)): 0
- CFU count - absolute values (AG100, 2xMIC, T24 (24 h)): 0
- CFU count Log10 (AG100, 2xMIC, T24 (24 h)): 0
- CFU count Mean (AG100, 2xMIC, T24 (24 h)): 0.0E+00
- time of exposure to reduce viability to zero (AG100, 2× MIC): 1 h
- CFU count - Strain dilution (AG100, 4xMIC, T1 (1 h)): 0
- CFU count - absolute values (AG100, 4xMIC, T1 (1 h)): 0
- CFU count Log10 (AG100, 4xMIC, T1 (1 h)): 0
- CFU count Mean (AG100, 4xMIC, T1 (1 h)): 0.0E+00
- CFU count - Strain dilution (AG100, 4xMIC, T2 (2 h)): 0
- CFU count - absolute values (AG100, 4xMIC, T2 (2 h)): 0
- CFU count Log10 (AG100, 4xMIC, T2 (2 h)): 0
- CFU count Mean (AG100, 4xMIC, T2 (2 h)): 0.0E+00
- CFU count - Strain dilution (AG100, 4xMIC, T3 (3 h)): 0
- CFU count - absolute values (AG100, 4xMIC, T3 (3 h)): 0
- CFU count Log10 (AG100, 4xMIC, T3 (3 h)): 0
- CFU count Mean (AG100, 4xMIC, T3 (3 h)): 0.0E+00
- CFU count - Strain dilution (AG100, 4xMIC, T4 (4 h)): 0
- CFU count - absolute values (AG100, 4xMIC, T4 (4 h)): 0
- CFU count Log10 (AG100, 4xMIC, T4 (4 h)): 0
- CFU count Mean (AG100, 4xMIC, T4 (4 h)): 0.0E+00
- CFU count - Strain dilution (AG100, 4xMIC, T5 (5 h)): 0
- CFU count - absolute values (AG100, 4xMIC, T5 (5 h)): 0
